What was measured:
[1] = system: ATDC5 cells; assay: ATDC5 micro-mass culture chondrogenesis, alcian blue staining; format: cell-based, mouse; conditions: ATDC5 cells in micro-mass culture; DHA at 0, 1, 5, 25 and 125 μM; quantified with ImageJ
Description: To further investigate the beneficial effects of GATA3 stimulation on cartilage regeneration, the inventors examined GATA3 activators in chondrogenesis. Using the ATDC5 cell line derived from mouse teratocarcinoma (undifferentiated embryonal carcinoma that can give rise to all three germ layers), the inventors first cultured the cells in micro-mass followed by differentiation into chondrocytes. Next, the inventors testes if the addition of GATA3 activators to the micro-mass culture could promote chondrogenesis. Staining was then performed to detect chondrogenic cells, which were positive for alcian blue. Imaging and quantitative analysis was then carried out to determine the percentage of the positively stained area using ImageJ.

[2] = system: GATA3; conditions: literature reports (Attakpa 2009; Gocke 2009; Ahmad 2017); cited from earlier work

Oc1ccc(-c2nc(-c3ccncc3)c(-c3ccc(F)cc3)[nH]2)cc1 [SB202190]
chondrocyte differentiation / chondrogenesis (percentage of alcian blue positively stained area) [1]: substantial stimulated effects on chondrogenesis
GATA3 expression (transcripts and proteins) [2]: enhance GATA3 expression

Cc1cccc(Nc2cc(Cl)nc(SCC(=O)O)n2)c1C [Pirinixic acid]
chondrocyte differentiation / chondrogenesis (percentage of alcian blue positively stained area) [1]: substantial stimulated effects on chondrogenesis
GATA3 expression (transcripts and proteins) [2]: enhance GATA3 expression

Cc1ccc(C)c(OCCCC(C)(C)C(=O)O)c1 [Gemfibrozil]
chondrocyte differentiation / chondrogenesis (percentage of alcian blue positively stained area) [1]: substantial stimulated effects on chondrogenesis
GATA3 expression (transcripts and proteins) [2]: enhance GATA3 expression

N#CC(=C(/N)Sc1ccccc1N)/C(C#N)=C(\N)Sc1ccccc1N [U0126]
GATA3 expression (transcripts and proteins) [2]: enhance GATA3 expression

Nc1nc2c(cnn2CCc2ccccc2)c2nc(-c3ccco3)nn12 [SCH 58261]
GATA3 expression (transcripts and proteins) [2]: enhance GATA3 expression

From US20260151538A1, “DIFFERENTIATION AND REPROGRAMMING OF CHONDROCYTE” (ADA Forsyth Institute, Inc., priority 2022, published 2026)
